Data from patent publication US10071990B2, “Site-specific orthogonal labeling of the carboxy terminus of α-tubulin in live cells” (The Research Foundation for The State University of New York, priority 2013, dated 2018).
Read-outs that look alike come from different tables or passages of the source. One block for each molecule: values may come before it.

Columns and labels:
[1] = Absorption and fluorescence spectra and quantum yield; format: physicochemical; settings: in methanol at 25° C.
Description: To test this hypothesis, the absorption and fluorescence spectra of coumarin hydrazine and the salicylaldehyde hydrazone of coumarin hydrazine were measured, which serves as a model compound for the protein-bound hydrazone. Hydrazone formation causes a shift in both the absorption and emission maxima of coumarin hydrazine and a significant increase in quantum yield (Table 2). Thus, as a result of the difference in the spectroscopic window and the quantum yields of coumarin hydrazine and its salicylaldehyde hydrazone, fluorescence from unreacted coumarin hydrazine can be averted.

tubulin tyrosine ligase = target: T1, tubulin tyrosine ligase (Homo sapiens, UniProt Q8NG68); assay: Inhibition of [3H]-L-tyrosine incorporation into tubulin by TTL; format: biochemical
T1 construct: made in house; host or cells: Escherichia coli BL21
T1 sequence (Q8NG68 1-377): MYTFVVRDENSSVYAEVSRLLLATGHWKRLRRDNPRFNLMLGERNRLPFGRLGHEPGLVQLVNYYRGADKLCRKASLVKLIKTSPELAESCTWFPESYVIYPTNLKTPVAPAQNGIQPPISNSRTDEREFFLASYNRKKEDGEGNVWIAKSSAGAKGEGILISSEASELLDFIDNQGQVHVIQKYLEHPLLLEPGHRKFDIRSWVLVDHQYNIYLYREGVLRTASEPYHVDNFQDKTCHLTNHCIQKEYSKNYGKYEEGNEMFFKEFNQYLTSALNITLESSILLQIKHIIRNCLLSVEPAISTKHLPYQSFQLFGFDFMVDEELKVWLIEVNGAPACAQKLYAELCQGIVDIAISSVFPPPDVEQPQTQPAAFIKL
Description: Tubulin Tyrosine Ligase. An initial supply of TTL was a gift of Prof. Dr. Jürgen Wehland and Dr. Christian Erck (Gesellschaft für Biotechnologische Forschung, Germany) and was stored at −80° C. Human TTL was prepared using expression vector p Receiver 05x (Genecopoeia, Md.), transformed into the Escherichia coli expression strain BL21.
[3H]-Tyr Incorporation Assay. TTL was thawed and diluted to 1 mg mL^−1 immediately before use. Detyrosinated tubulin (10 μM tubulin) in TTL buffer was combined with […] μL^−1 [3H-Tyr], 0.1 μg μL^−1 TTL, and various concentrations of inhibitor. The mixture was allowed to react for 30 min at 37° C. A 35 μL aliquot of the sample was placed onto DEAE chromatography paper (Whatman) and allowed to dry for 30 min. The protein was fixed using 200 μL of 10% acetic acid and allowed to dry for 10 min. Excess [3H-Tyr] was removed by 2 washes with 3.5 mL of 100% ethanol. The paper was allowed to dry for 30 min and then was combined with 10 mL of Scintiverse (BD) scintillation fluid. The amount of [3H]-tyrosine on each filter was determined using a β-counter.

PC3 cells [2] = assay: Effect on cell morphology and microtubule network (immunofluorescence); format: cell-based; settings: 24 hour treatment followed by treatment with a fluorophore
Description: PC3 cells were grown in F12K medium supplemented with unnatural amino acid for 24 h. Cells were washed and then treated with fluorophores for 24 h before fixing with methanol. Cells were then processed for immunofluorescence using tubulin antibody (red) and DAPI (blue).
PC3 cells were grown in F12K medium supplemented with unnatural amino acid for 24 h. Cells were washed and treated with a fluorophore for 24 h before fixing with methanol. Cells were then processed for immunofluorescence using tubulin antibody (red) and DAPI (blue).

cells = assay: SRB assay after 96 h treatment with amino acid; format: cell-based; settings: for IC50: cells treated 96 h, read-out: IC 50 (toxicity)
PC3 cells [3] = assay: SRB cytotoxicity of amino acid and fluorophore on live cells; format: cell-based; settings: 24 hour period
Description: PC3 cells were grown in medium supplemented with unnatural amino acid or vehicle for 24 h. Cells were then treated with fluorophore or vehicle for 24 h, following which an SRB assay was performed to assess the cytotoxicity of the molecules.
FIGS. 12A-12C show graphs of cytotoxicity of amino acid and fluorophore on live cells. The labeling technique is not detrimental to PC3 cell survival. PC3 cells were grown in medium supplemented with unnatural amino acid or vehicle (2% v/v, 10 mM phosphate buffer, pH 7) for 24 h. Cells were then treated with fluorophore or vehicle (1% v/v DMSO) for 24 h. Following which SRB assay was performed to assess the cytotoxicity of the molecules.

[4] = Kinetics of hydrazone formation by absorption difference spectroscopy; settings: reaction with 3-formyltyrosine, PME buffer pH 6.9, 25° C.
Description: Removal and replacement of the C-terminal tyrosine of α-tubulin can be assessed by Western blot. […] The presence of a carbonyl in α-tubulin was confirmed reacting the protein with dinitrophenylhydrazine (DNPH) followed L-tyrosine or 3-formyltyrosine as described under Methods and then subjected to SDS-PAGE. Top: Western blot with tyrosinated α-tubulin antibody (Sigma-Aldrich TUB-1A2). Bottom: Coomassie stain. Lane 1: Tubulin. Lane 2: Tubulin treated with CPA. Lane 3: CPA-treated tubulin retyrosinated with tyrosine. Lane 4: CPA-treated tubulin retyrosinated with 3-formyltyrosine. The mass of protein loaded each well was 0.66 μg for the Western blot and 10 μg for the protein stain. Hydrazone Formation: Effect of the Structure of the Nucleophile. Reactions of aldehydes and ketones with hydrazines, hydroxylamines, and amines have been extensively studied (33). The rate vs pH curve is bellshaped; the maximum reaction rate is around the pKa of the hydrazine. […]
Kinetic Measurements. Kinetics of hydrazone formation were measured using absorption difference spectroscopy. […] The change in absorbance for one wavelength was selected from the spectral data, and these values were plotted as a function of time. The data were analyzed as a single pseudo-first-order reaction and were fit to the appropriate equation using SigmaPlot 10.0.

[5] = from reference 34; cited from earlier work
[6] = inhibition of tubulin tyrosine ligase, 10 μM detyrosinated tubulin, 30 min at 37° C.

Abs max [1]: 380 nm | Em max [1]: 459 nm | φ (quantum yield) [1]: 0.131
Molecule: Cc1cc(=O)oc2cc(NN=Cc3ccccc3O)ccc12

Ki (tubulin tyrosine ligase; [6]): 200 µM
Molecule: Nc1cc(C[C@H](N)C(=O)O)ccc1O [3-Aminotyrosine]

Ki (tubulin tyrosine ligase): 200 µM
Molecule: [N-]=[N+]=Nc1cc(C[C@H](N)C(=O)O)ccc1O [3-Azidotyrosine]

Ki (tubulin tyrosine ligase): 300 µM
Molecule: N[C@@H](Cc1ccc(O)c(C=O)c1)C(=O)O [3-Formyltyrosine]
effect on microtubule network and cell morphology (PC3 cells [2]): does not alter the microtubule network or cell morphology | IC50 (cells): > 25 µM

Ki (tubulin tyrosine ligase): > 4000 µM
Molecule: Nc1ccc(C[C@H](N)C(=O)O)cc1 [4-Aminophenylalanine]

Molecule: CC(=O)c1cc(C[C@H](N)C(=O)O)ccc1O [AcY, 3-acetyltyrosine]
cytotoxicity compared with 3fY (PC3 cells [3]): less cytotoxic over 24 hour period than 3fY | effect on microtubule network and cell morphology (PC3 cells [2]): does not alter the microtubule network or cell morphology | IC50 (cells): > 5000 µM

Molecule: N[C@@H](Cc1ccc(O)cc1)C(=O)O [Tyrosine]
Ki (tubulin tyrosine ligase; [6]): 25 µM

Molecule: NNC(=O)[C@@H](N)Cc1ccc(O)cc1 [Yzide, tyrosine hydrazide, reference compound]
effect on microtubule network and cell morphology (PC3 cells [2]): does not alter the microtubule network or cell morphology | toxicity (cells; 5 mM ligand, 96 h): No toxicity observed | IC50 (cells): > 5000 µM

Abs max [1]: 360 nm | Em max [1]: 432 nm | φ (quantum yield) [1]: 0.046
Molecule: Cc1cc(=O)oc2cc(NN)ccc12 [coumarin hydrazine, 7-hydrazino-4-methyl coumarin]
time to complete hydrazone formation [4]: ≤ 120 min | second-order rate constant of hydrazone formation ([4]; no catalyst): 0.883 M⁻¹ s⁻¹

Molecule: NNc1ccccc1 [phenyl hydrazine]
pKa [5]: 5.3

Molecule: Phenyl hydrazide
pKa [5]: 3.1
